One assay relates to CCRF-CEM. Nature of the assay: CCK-8 proliferation, CCRF-CEM. Conditions: Homo sapiens, CCRF-CEM; CCK-8; 96 hours; read-out: Inhibitory activity (IC50) on tumor cell proliferation, CCRF-CEM. Type of assay: cell-based, Human. The essentials: (§1)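 Cells seeded, then after 24 h treated with 10 concentrations (top 10 µM, 5-fold serial dilution) for a line-specific time at 37°C, 5% CO2. Viability read by CCK-8; IC50 fitted from growth-inhibition curves.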

A further assay has as its target T1, FAK (Homo sapiens, UniProt Q05397).
T1 construct: evaluate the effects of the compounds of the present disclosure on the expression of target proteins in cells; endogenous in cells
Nature of the assay: Western blot degradation of FAK. Conditions: Table D7. The assay is classed as cell-based. The procedure:
Conventional Western blot assay was performed to evaluate the effects of the compounds of the present disclosure on the expression of target proteins in cells.
(1) Cell Seeding and Protein Harvesting: The selected cells were processed according to the cell seeding procedure and protein harvesting procedure in Table III-2. Table III-2 Cell Seeding and Protein Harvesting Procedures
(2) To the collected supernatant, 5X SDS sample loading buffer was added, followed by denaturation at 95°C for 5 minutes. The denatured samples were then separated by SDS-PAGE electrophoresis on a polyacrylamide gel. Proteins were transferred to a nitrocellulose membrane (0.45 µm NC membrane), blocked with blocking buffer at room temperature for 1 hour, and subjected to antibody incubation and development procedures according to the antibody manufacturer's instructions (Cell Signaling Technology).
Half-Maximal Degradation Concentration value (the drug concentration required for degrading proteins by 50%, abbreviated as DC50) reads method: comparing the grayscale values of Western blot bands from drug-treated samples with those from blank DMSO-treated controls, and identifying the drug concentration range at which the grayscale value is half that of the DMSO-treated control bands.
DC50 values can be calculated using ImageJ software to measure grayscale values of Western blot bands from drug-treated samples. The concentration-response curve is fitted to estimate the drug concentration corresponding to half the grayscale value.
Target protein remaining (%) refers to the percentage of target protein remaining in hPBMC cells after treatment with protein degrader compounds.
Calculation method for target protein remaining (%): Use ImageJ software to measure grayscale values of Western blot bands from drug (protein degrader)-treated samples. The grayscale value of drug-treated bands is divided by that of internal control protein bands, and the resulting quotient is normalized to obtain the relative percentage of remaining target protein after protein degrader treatment.
Target protein degradation rate (%) = 100% - target protein remaining (%).

For a further assay, the system named is SW620. Briefly: CCK-8 proliferation, SW620. As to conditions: Homo sapiens, SW-620; CCK-8; 96 hours; read-out: Inhibitory activity (IC50) on tumor cell proliferation, SW620. Type of assay: cell-based. The procedure: (§2) The tumor cells used herein were cultured in a cell culture medium listed in table A1 at 37°C in an incubator with 5% CO2. Prior to experimentation, all cell lines used were correctly identified by STR profiling, and tested negative for mycoplasma contamination using a mycoplasma detection kit through routine screenings. Table A1. Tumor cells and cell culture medium used in the present disclosure
(§3) IC50 values of the compounds of the present disclosure (including the compounds in Table 1, and compounds of examples) were measured using the Meilun Cell Counting Kit-8 kit from Dalian Meilun Biotech Co., Ltd. Assay details are as follows: tumor cells were seeded in a 96-well plate at a density listed in Table A2. After 24h, 100 µL of the inoculated cells were treated with 0.5µL of the compounds of the present disclosure (including the compounds in Tables 1 and 2, and compounds of examples) at 10 different successively decreasing concentrations (starting at the highest concentration of 10µM; 5-fold serial dilutions). After the cells were treated with the compounds of the present disclosure for a period of time, the cell viability detection reagent was added to the culture medium for cell viability assessment according to the instructions provided with the CCK-8 kit. […] The growth inhibition of the compounds of the present disclosure on cells was plotted by Prism Graphpad software, and the IC50 values of the compounds of the present disclosure were calculated therefrom. […] Seeding protocol and treatment time for tumor cells

For another assay, the system named is MV-4-11. Briefly: CCK-8 proliferation, MV-4-11. Type of assay: cell-based, Human. Conditions: Homo sapiens, MV4-11; CCK-8; 72 or 96 hours; read-out: Inhibitory activity (IC50) on tumor cell proliferation, MV-4-11. The procedure:
as §2, §3

The target of assay [1] is T2, human Cereblon WT GST-tagged protein (Homo sapiens, UniProt Q96SW2).
T2 construct: purchased CISBIO 64BDCRBNPEH
Nature of the assay: CRBN binding, HTRF (CEREBLON BINDING kit). As to conditions: Table II-2, CRBN binding screening, HTRF; for inhibition at 0.5 µM: read-out: Inhibition rate (%) at 0.5µM; for inhibition at 2 µM: read-out: Inhibition rate (%) at 2 µM. In outline: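 After 3 h at room temperature, emission at 665 and 620 nm was measured in a homogeneous time-resolved fluorescence format. Compounds competed with a Thalidomide-Re probe for GST-tagged wild-type human CRBN, which was labelled with a Eu anti-GST antibody.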

For a further assay, the system named is SR. Briefly: CCK-8 proliferation, SR. Type of assay: cell-based, Human. Conditions: Homo sapiens. The essentials:
as §1

A further assay relates to H1975. Nature of the assay: CCK-8 proliferation, NCI-H1975 (H1975). As to conditions: Homo sapiens, NCI-H1975; CCK-8; 96 hours; read-out: Inhibitory activity (IC50) on tumor cell proliferation, H1975. Type of assay: cell-based, Human. The essentials:
as §1

For a further assay, the system named is Jurkat. Briefly: CCK-8 proliferation, Jurkat. Type of assay: cell-based, Human. As to conditions: Homo sapiens, Jurkat; CCK-8; 96 hours; read-out: Inhibitory activity (IC50) on tumor cell proliferation, Jurkat. The procedure:
as §2, §3

The next assay has as its system PC-9. Briefly: CCK-8 proliferation, PC-9. As to conditions: Homo sapiens, PC-9; CCK-8; 96 hours; read-out: Inhibitory activity (IC50) on tumor cell proliferation, PC-9. The assay is classed as cell-based, Human. The procedure:
as §2, §3

The next assay concerns H2228. Briefly: CCK-8 proliferation, NCI-H2228 (H2228). The assay is classed as cell-based. Conditions: Homo sapiens, NCI-H2228. The essentials: as §1
The subject of a further assay is MDA-MB-231. Briefly: CCK-8 proliferation, MDA-MB-231. Type of assay: cell-based. As to conditions: Homo sapiens; Table B6, compounds designed based on the ALK inhibitors; MDA-MB-231 cells; read-out: Inhibitory activity (IC50, nM) on tumor cell proliferation, MDA-MB-231. The procedure: as §2, §3
[2] abbreviates: SR, CCK-8, 72 hours, read-out: Inhibitory activity (IC50) on tumor cell proliferation, SR.

Like-named read-outs stand apart in the source and are kept apart here.

T1 sequence (Q05397 whole entry, species assumed): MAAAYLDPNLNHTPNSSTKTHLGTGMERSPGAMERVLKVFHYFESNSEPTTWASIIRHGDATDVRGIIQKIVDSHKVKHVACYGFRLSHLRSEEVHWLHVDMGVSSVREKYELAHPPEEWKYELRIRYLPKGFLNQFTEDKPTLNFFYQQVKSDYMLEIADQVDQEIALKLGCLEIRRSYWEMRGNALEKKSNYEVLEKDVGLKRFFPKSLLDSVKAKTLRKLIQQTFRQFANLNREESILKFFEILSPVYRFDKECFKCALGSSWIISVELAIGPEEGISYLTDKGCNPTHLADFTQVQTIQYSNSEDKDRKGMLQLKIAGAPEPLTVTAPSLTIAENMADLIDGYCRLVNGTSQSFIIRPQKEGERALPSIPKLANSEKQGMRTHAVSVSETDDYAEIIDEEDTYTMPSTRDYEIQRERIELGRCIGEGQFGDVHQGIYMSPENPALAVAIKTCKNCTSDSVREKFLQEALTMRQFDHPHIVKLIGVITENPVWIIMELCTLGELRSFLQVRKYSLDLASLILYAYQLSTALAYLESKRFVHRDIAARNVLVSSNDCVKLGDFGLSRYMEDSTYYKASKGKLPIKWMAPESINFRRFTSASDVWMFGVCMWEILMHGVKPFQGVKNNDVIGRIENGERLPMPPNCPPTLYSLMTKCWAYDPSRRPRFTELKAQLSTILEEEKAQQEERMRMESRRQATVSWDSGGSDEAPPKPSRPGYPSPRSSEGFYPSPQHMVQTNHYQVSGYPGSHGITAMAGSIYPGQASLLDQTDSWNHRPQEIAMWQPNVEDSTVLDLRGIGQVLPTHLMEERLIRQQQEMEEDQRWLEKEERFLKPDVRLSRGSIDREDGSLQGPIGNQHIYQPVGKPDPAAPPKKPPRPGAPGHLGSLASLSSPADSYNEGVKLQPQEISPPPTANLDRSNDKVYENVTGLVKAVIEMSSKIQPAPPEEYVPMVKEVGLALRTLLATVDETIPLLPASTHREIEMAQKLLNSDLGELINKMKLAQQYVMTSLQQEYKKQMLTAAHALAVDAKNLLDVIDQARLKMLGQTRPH
T2 sequence (Q96SW2 whole entry): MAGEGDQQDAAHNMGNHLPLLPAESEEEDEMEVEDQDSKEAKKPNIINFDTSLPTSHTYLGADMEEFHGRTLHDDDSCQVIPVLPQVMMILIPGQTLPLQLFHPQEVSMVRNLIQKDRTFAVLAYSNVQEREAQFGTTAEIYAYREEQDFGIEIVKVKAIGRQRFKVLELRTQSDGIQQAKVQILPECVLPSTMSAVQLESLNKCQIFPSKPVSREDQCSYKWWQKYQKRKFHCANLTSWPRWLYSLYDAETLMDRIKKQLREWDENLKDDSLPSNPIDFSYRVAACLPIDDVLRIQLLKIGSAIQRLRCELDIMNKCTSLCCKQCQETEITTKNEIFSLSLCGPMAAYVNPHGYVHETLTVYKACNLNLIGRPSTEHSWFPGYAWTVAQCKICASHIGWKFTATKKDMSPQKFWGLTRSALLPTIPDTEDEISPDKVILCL

Take `CNC(=O)c1ccccc1Nc1cc(Nc2ccc(N3CCC(N4CCN(Cc5ccc(C6CCC(=O)NC6=O)cc5)CC4)CC3)cc2OC)ncc1C(F)(F)F` (stereo not drawn) [GT-03599, 2-((2-((4-(4-(4-(4-(2,6-dioxopiperidin-3-yl)benzyl)piperazin-1-yl)piperidin-1-yl)-2-methoxyphenyl)amino)-5-(trifluoromethyl)pyridin-4-yl)amino)-N-methylbenzamide]: the IC50 in the assay with CCRF-CEM was in the range of 100 to 500 nM. Moreover, on FAK, the “Degradation of substrate protein FAK (substrate protein remaining %)” value (from here on “Degradation … (substrate protein remaining %)”) is on record as “A (A is defined as 0% ≤ substrate protein remaining % ≤ 80%)”.
Regarding `CNC(=O)c1ccccc1Nc1cc(Nc2ccc(N3CCN(Cc4ccc(C5CCC(=O)NC5=O)cc4)CC3)cc2OC)ncc1C(F)(F)F` (stereo not drawn) [GT-03715, 2-((2-((4-(4-(4-(2,6-dioxopiperidin-3-yl)benzyl)piperazin-1-yl)-2-methoxyphenyl)amino)-5-(trifluoromethyl)pyridin-4-yl)amino)-N-methylbenzamide], the IC50 in the assay with SW620 was 500 to 1000 nM; with CCRF-CEM it was 500 to 1000 nM; in the assay on MV-4-11, 100 to 500 nM; in the assay with SR (setting [2]), 100 to 500 nM. In assay [1], the inhibition at 0.5 µM lay in the range of 10 to 20%. Further, the inhibition at 2 µM in assay [1] was 60 to 80%. Also, the “Degradation … (substrate protein remaining %)” value on FAK is on record as “A (A is defined as 0% ≤ substrate protein remaining % ≤ 80%)”.
In the case of `CNC(=O)c1ccccc1Nc1cc(Nc2ccc(N3CCN(Cc4ccc(C5CCC(=O)NC5=O)c(F)c4)CC3)cc2OC)ncc1C(F)(F)F` (stereo not drawn) [GT-03717, 2-((2-((4-(4-(4-(2,6-dioxopiperidin-3-yl)-3-fluorobenzyl)piperazin-1-yl)-2-methoxyphenyl)amino)-5-(trifluoromethyl)pyridin-4-yl)amino)-N-methylbenzamide], the IC50 in the assay on SW620 was in the range of 500 to 1000 nM; in the assay on MV-4-11, 100 to 500 nM; in the assay with SR (setting [2]), 100 to 500 nM; in the assay on H1975 it was 500 to 1000 nM. For the same compound, the inhibition at 0.5 µM in assay [1] lay in the range of 30 to 40%. In assay [1], the inhibition at 2 µM was 40 to 53%. Moreover, the “Degradation … (substrate protein remaining %)” value at FAK is reported as “A (A is defined as 0% ≤ substrate protein remaining % ≤ 80%)”.
As to `CNC(=O)c1ccccc1Nc1cc(Nc2cc(C)c(N3CCN(Cc4ccc(C5CCC(=O)NC5=O)cc4)CC3)cc2OC(C)C)ncc1C(F)(F)F` (stereo not drawn) [GT-03946, 2-((2-((4-(4-(4-(2,6-dioxopiperidin-3-yl)benzyl)piperazin-1-yl)-2-isopropoxy-5-methylphenyl)amino)-5-(trifluoromethyl)pyridin-4-yl)amino)-N-methylbenzamide], in assay [1], the inhibition at 0.5 µM is 30 to 40% and the inhibition at 2 µM lay in the range of 53 to 60%. For the same compound, on FAK, the “Degradation … (substrate protein remaining %)” value is recorded as “A (A is defined as 0% ≤ substrate protein remaining % ≤ 80%)”.
Take `COc1cc(C(=O)NC2CCN(Cc3ccc(C4CCC(=O)NC4=O)cc3)CC2)c(F)cc1Nc1ncc(C(F)(F)F)c(Oc2cccc3c2C(=O)N(C)C3)n1` (stereo not drawn) [GT-04034, N-(1-(4-(2,6-dioxopiperidin-3-yl)benzyl)piperidin-4-yl)-2-fluoro-5-methoxy-4-((4-((2-methyl-3-oxoisoindolin-4-yl)oxy)-5-(trifluoromethyl)pyrimidin-2-yl)amino)benzamide]: in assay [1], the inhibition at 0.5 µM fell in the range of 53 to 60% and the inhibition at 2 µM was in the range of 80 to 100%. Moreover, the “Degradation … (substrate protein remaining %)” value on FAK was “A (A is defined as 0% ≤ substrate protein remaining % ≤ 80%)”.
For `COc1cc(C(=O)NC2CCN(Cc3ccc(C4CCC(=O)NC4=O)c(F)c3)CC2)c(F)cc1Nc1ncc(C(F)(F)F)c(Oc2cccc3c2C(=O)N(C)C3)n1` (stereo not drawn) [GT-04035, N-(1-(4-(2,6-dioxopiperidin-3-yl)-3-fluorobenzyl)piperidin-4-yl)-2-fluoro-5-methoxy-4-((4-((2-methyl-3-oxoisoindolin-4-yl)oxy)-5-(trifluoromethyl)pyrimidin-2-yl)amino)benzamide], in assay [1], the inhibition at 0.5 µM was in the range of 40 to 53% and the inhibition at 2 µM fell in the range of 80 to 100%. Besides, the “Degradation … (substrate protein remaining %)” value at FAK was “A (A is defined as 0% ≤ substrate protein remaining % ≤ 80%)”. Also, in the assay on Jurkat, the IC50 was in the range of 50 to 100 nM.
`CNC(=O)c1ccccc1Nc1cc(Nc2cc(C)c(N3CCC(N(C)Cc4ccc(C5CCC(=O)NC5=O)c(F)c4)CC3)cc2OC(C)C)ncc1C(F)(F)F` (stereo not drawn) [GT-04095, 2-((2-((4-(4-((4-(2,6-dioxopiperidin-3-yl)-3-fluorobenzyl)(methyl)amino)piperidin-1-yl)-2-isopropoxy-5-methylphenyl)amino)-5-(trifluoromethyl)pyridin-4-yl)amino)-N-methylbenzamide]: in [1], the inhibition at 0.5 µM is 20 to 30% and the inhibition at 2 µM lay in the range of 60 to 80%. In addition, on FAK, the “Degradation … (substrate protein remaining %)” value is “A (A is defined as 0% ≤ substrate protein remaining % ≤ 80%)”.
Consider `NC(=O)c1ncc(N2CCCCC2)nc1Nc1ccc(C2CCN(Cc3ccc(N4CCC(=O)NC4=O)cc3F)CC2)cc1` [GT-04790, 3-((4-(1-(4-(2,4-dioxotetrahydropyrimidin-1(2H)-yl)-2-fluorobenzyl)piperidin-4-yl)phenyl)amino)-5-(piperidin-1-yl)pyrazine-2-carboxamide], for which the IC50 in the assay on SW620 is 500 to 1000 nM; in the assay on PC-9, 100 to 500 nM; in the assay with H1975, 500 to 1000 nM; in the assay on H2228 (CCK-8, 96 hours, read-out: Inhibitory activity (IC50) on tumor cell proliferation, H2228), 100 to 500 nM.
As to `COc1cc(N2CCN(Cc3ccc(C4CCC(=O)NC4=O)cn3)CC2)ccc1Nc1ncc(Cl)c(Nc2ccccc2P(C)(C)=O)n1` (stereo not drawn) [GT-07713, 3-(6-((4-(4-((5-chloro-4-((2-(dimethylphosphoryl)phenyl)amino)pyrimidin-2-yl)amino)-3-methoxyphenyl)piperazin-1-yl)methyl)pyridin-3-yl)piperidine-2,6-dione], the IC50 was in the range of 500 to 1000 nM in the assay on MDA-MB-231; 10 to 50 nM with SR (Table B6, compounds designed based on the ALK inhibitors, SR cells, read-out: Inhibitory activity (IC50, nM) on tumor cell proliferation, SR); 100 to 500 nM with H2228 (Table B6, compounds designed based on the ALK inhibitors, H2228 cells, read-out: Inhibitory activity (IC50, nM) on tumor cell proliferation, H2228).

Source of the values: patent EP4678638A1, “NEW E3 UBIQUITIN LIGASE LIGAND, PROTEIN DEGRADATION AGENT AND USE THEREOF” (priority 2023, dated 2024).
